Columns and labels:
IP receptor = target: T1, IP receptor (Homo sapiens, UniProt P43119); assay: IP receptor binding/cAMP in HEL cells ([3H]-iloprost binding, Assay 1; iloprost-induced cAMP production, Assay 2); details: compounds of about 40 to 90% purity, read-out: In vitro activity grade (IC50 class)
T1 construct: one million cells in 160 μl aliquot of cell suspension were put in a well of 96 well plate; host or cells: HEL 92.1.7 human erythroleukemia cells (whole cells)
Procedure: [Measurement of the [^3H]-iloprost Binding to HEL Cells] (Assay 1)
A human erythloleukemia cell line, HEL 92.1.7, was purchased from American Type Culture Correction and maintained in RPMI-1640 medium (Gibco BRL) supplemented with 10% fetal calf serum (FCS), 2 mM glutamine, 4.5 g/L glucose, 10 mM Hepes, 1 mM sodium pyruvate, 100 U/ml penicillin, and 100 μg/ml streptomycin in a humidified 5% CO2 atmosphere at 37° C. Cells were collected with centrifugation and washed with binding assay buffer (BAB: 50 mM Tris-HCl, 5 mM MgCl2 (pH 7.5)). Cells were suspended at the density of 6.25×10^6 cells/ml in BAB, and one million cells in 160 μl aliquot of cell suspension were put in a well of 96 well plate (Falcon). Then, 20 μl of compound solution, 100 μM of iloprost (for non-specific binding), or buffer alone (total binding), diluted with 1% DMSO in BAB was added. Finally, another 20 μl containing [^3H]-iloprost (0.02 μCi, 0.5-1 pmol) in BAB was added and incubated at room temperature for 30 min with a gentle shaking. Cell suspension was then transferred to a well of MultiScreen plate with GF/C glass filters (Millipore) to harvest cells. Cells were washed twice with 200 μl of ice-cold BAB and the plate was kept at 55° C. for 30 min to dry filters. The filter in the well was punched out to a counting tube and 2 ml of Ultima Gold XR (Packard) was added. [^3H]-radio activity in the filter was measured by a liquid scintillation counter (Beckman, USA).
[Iloprost-Induced cAMP Production Assay in HEL Cells] (Assay 2)
HEL cells were collected with centrifugation and washed with cAMP assay buffer (CAB: Hank's balanced salt solution, 17 mM Hepes, 0.1% bovine serum albumin, 1 mM IBMX, 0.4% DMSO, and 1 mM L-ascorbic acid sodium salt (pH 7.4)). Cells were suspended at the density of 2.5×10^5 cells/ml in CAB, and twenty thousand cells in 80 μl aliquot of cell suspension were put in a well of 96 well plate (Falcon). Then, 10 μl of compound solution diluted with 1% DMSO in CAB or buffer alone was added. The plate was incubated at 37° C. for 30 min. Then, another 10 μl containing 100 nM iloprost in CAB or buffer alone was added and further incubated at 37° C. for 30 min. cAMP content in the well was measured by a cAMP ELISA kit (Applied Biosystems, USA).
The data corresponds to the compounds as yielded by solid phase synthesis and thus to levels of purity of about 40 to 90%. For practical reasons, the compounds are grouped in three classes of activity as follows: IC50=A<0.1 μM≦B<1 μM≦C

T1 sequence (P43119 whole entry): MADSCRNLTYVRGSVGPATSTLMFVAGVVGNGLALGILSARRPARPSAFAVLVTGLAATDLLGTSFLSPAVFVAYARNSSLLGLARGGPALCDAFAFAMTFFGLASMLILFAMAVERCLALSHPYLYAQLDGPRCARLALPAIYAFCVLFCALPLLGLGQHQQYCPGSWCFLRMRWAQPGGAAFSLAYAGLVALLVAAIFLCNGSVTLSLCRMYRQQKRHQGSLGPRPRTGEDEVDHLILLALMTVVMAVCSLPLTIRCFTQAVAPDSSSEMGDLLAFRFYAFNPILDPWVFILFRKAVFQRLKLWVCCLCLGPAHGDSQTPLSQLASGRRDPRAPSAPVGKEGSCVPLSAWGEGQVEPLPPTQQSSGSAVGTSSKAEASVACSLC

| IC50 (IP receptor) | melting point | Structure (SMILES) |
| --- | --- | --- |
| < 100 nM | 228 to 230 °C (dec.) | O=C(O)C(Cc1ccccc1)Nc1cc(-c2ccc(OCc3ccc(F)cc3)cc2)ncn1 (centres unmarked) [Example 2-7] |
| < 100 nM | 118 to 120 °C | O=C(O)C(Cc1ccccc1)Nc1cc(-c2ccc(OCC3CCCCC3)cc2)ncn1 (centres unmarked) [Example 2-8] |
| < 100 nM | 209 to 211 °C | O=C(O)C(Cc1ccccc1)Nc1cc(-c2ccc(OCCn3cccc3)cc2)ncn1 (centres unmarked) [Example 2-9] |
| < 100 nM | 205 to 208 °C | CCCCOc1ccc(-c2cc(NC(Cc3ccccc3)C(=O)O)ncn2)cc1 (centres unmarked) [Example 2-10] |
| < 100 nM | 207 to 210 °C (dec.) | O=C(O)C(Cc1ccccc1)Nc1cc(-c2ccc(OCc3cc(F)cc(F)c3)cc2)ncn1 (centres unmarked) [Example 2-11] |
| < 100 nM | 201 to 204 °C (dec.) | CC(C)Oc1ccc(-c2cc(NC(Cc3ccccc3)C(=O)O)ncn2)cc1 (centres unmarked) [Example 2-12] |
| 100 to 1000 nM | 203 to 206 °C (dec.) | COc1ccc(-c2cc(NC(Cc3ccccc3)C(=O)O)ncn2)cc1 (centres unmarked) [Example 2-13] |
| < 100 nM | 190 to 193 °C (dec.) | O=C(O)C(Cc1ccccc1)Nc1cc(-c2ccc(OCc3cccc(O)c3)cc2)ncn1 (centres unmarked) [Example 2-14] |
| < 100 nM | 210 to 213 °C (dec.) | O=C(O)C(Cc1ccccc1)Nc1cc(-c2ccc(OCC3CCC3)cc2)ncn1 (centres unmarked) [Example 2-15] |
| < 100 nM | 214 to 216 °C (dec.) | O=C(O)C(Cc1ccccc1)Nc1cc(-c2ccc(OCCc3ccccc3)cc2)ncn1 (centres unmarked) [Example 2-16] |
| < 100 nM | 210 to 213 °C (dec.) | CC(C)COc1ccc(-c2cc(NC(Cc3ccccc3)C(=O)O)ncn2)cc1 (centres unmarked) [Example 2-17] |
| < 100 nM | 125 to 128 °C | O=C(O)C(Cc1ccccc1)Nc1cc(-c2ccc(OCC3CCCC3)cc2)ncn1 (centres unmarked) [Example 2-20] |
| < 100 nM | 135 to 136 °C (dec.) | O=C(O)C(Cc1ccccc1)Nc1cc(-c2ccc(OCc3cccnc3)cc2)ncn1 (centres unmarked) [Example 2-21] |
| > 1000 nM | 117 to 120 °C | O=C(O)C(Cc1ccccc1)Nc1cc(-c2ccc(OCCN3CCCC3)cc2)ncn1 (centres unmarked) [Example 2-22] |
| < 100 nM | 85 to 88 °C | O=C(O)C(Cc1ccccc1)Nc1cc(-c2ccc(OCCc3cccnc3)cc2)ncn1 (centres unmarked) [Example 2-23] |
| < 100 nM | 190 to 193 °C (dec.) | COCCOc1ccc(-c2cc(NC(Cc3ccccc3)C(=O)O)ncn2)cc1 (centres unmarked) [Example 2-24] |
| < 100 nM | 101 to 104 °C | O=C(O)C(Cc1ccccc1)Nc1cc(-c2ccc(OCCCc3ccccc3)cc2)ncn1 (centres unmarked) [Example 2-25] |
| < 100 nM | 120 to 122 °C (dec.) | O=C(O)C(Cc1ccccc1)Nc1cc(-c2ccc(OCCc3ccccn3)cc2)ncn1 (centres unmarked) [Example 2-26] |
| < 100 nM | 113 to 115 °C | O=C(O)C(Cc1ccccc1)Nc1cc(-c2ccc(OCCc3ccncc3)cc2)ncn1 (centres unmarked) [Example 2-27] |
| < 100 nM | 120 to 123 °C | O=C(O)C(Cc1ccccc1)Nc1cc(-c2ccc(OCc3ccccn3)cc2)ncn1 (centres unmarked) [Example 2-28] |
| < 100 nM | 110 to 113 °C | O=C(O)C(Cc1ccccc1)Nc1cc(-c2ccc(OCc3ccncc3)cc2)ncn1 (centres unmarked) [Example 2-29] |
| < 100 nM | 169 °C | O=C(O)C(Cc1cccc(O)c1)Nc1cc(-c2ccc(OCc3ccccc3)cc2)ncn1 (centres unmarked) [Example 2-30] |
| < 100 nM | 109 to 112 °C | O=C(O)C(Cc1ccccc1)Nc1cc(-c2ccc(OCC(F)(F)F)cc2)ncn1 (centres unmarked) [Example 2-31] |

| IC50 (IP receptor) | melting point | Structure (SMILES) |
| --- | --- | --- |
| < 100 nM | 84 to 87 °C | O=C(O)C(Cc1ccccn1)Nc1cc(-c2ccc(OCc3ccccc3F)cc2)ncn1 (centres unmarked) [Example 2-32] |
| < 100 nM | 92 to 95 °C | O=C(O)C(Cc1ccccn1)Nc1cc(-c2ccc(OCc3cccc(F)c3)cc2)ncn1 (centres unmarked) [Example 2-33] |
| < 100 nM | 85 to 90 °C | CCCCC(Nc1cc(-c2ccc(OCc3ccccc3F)cc2)ncn1)C(=O)O (centres unmarked) [Example 2-34] |
| < 100 nM | 181 to 186 °C | CCCCC(Nc1cc(-c2ccc(OCc3cccc(F)c3)cc2)ncn1)C(=O)O (centres unmarked) [Example 2-35] |
| < 100 nM | 52 to 53 °C | O=C(O)C(Cc1ccccn1)Nc1cc(-c2ccc(OCCc3ccccc3)cc2)ncn1 (centres unmarked) [Example 2-38] |
| < 100 nM | 90 to 92 °C | O=C(O)C(Cc1ccccn1)Nc1cc(-c2ccc(OCc3cc(F)cc(F)c3)cc2)ncn1 (centres unmarked) [Example 2-39] |
| < 100 nM | 86 to 88 °C | CCCCC(Nc1cc(-c2ccc(OCCc3ccccc3)cc2)ncn1)C(=O)O (centres unmarked) [Example 2-40] |
| < 100 nM | 115 to 118 °C | CCCCC(Nc1cc(-c2ccc(OCc3cccc(OC)c3)cc2)ncn1)C(=O)O (centres unmarked) [Example 2-44] |
| < 100 nM | 88 to 93 °C | CCCCC(Nc1cc(-c2ccc(OCc3cc(OC)cc(OC)c3)cc2)ncn1)C(=O)O (centres unmarked) [Example 2-45] |
| < 100 nM | 141 to 147 °C | CCCCC(Nc1cc(-c2ccc(OCc3cc(F)cc(F)c3)cc2)ncn1)C(=O)O (centres unmarked) [Example 2-46] |
| > 1000 nM | 89 to 92 °C | O=C(O)C(Cc1ccccc1)Nc1cncc(-c2ccc(OCc3ccccc3)cc2)n1 (centres unmarked) [Example 3-2] |
| > 1000 nM | 81 to 84 °C | O=C(O)C(Cc1ccccc1)Nc1cccc(-c2ccc(OCc3ccccc3)cc2)n1 (centres unmarked) [Example 3-3] |
| < 100 nM | 194 to 196 °C | O=C(O)C(Cc1ccccc1)Nc1cc(-c2ccc(OCc3ccccc3)cc2)ccn1 (centres unmarked) [Example 3-4] |
| < 100 nM | 143.1 °C | CN(C)CCOc1cccc(C[C@H](Nc2cc(-c3ccc(OCc4ccccc4)cc3)ncn2)C(=O)O)c1 [Example 4-1, N-{6-[4-(Benzyloxy)phenyl]pyrimidin-4-yl}-3-[2-(dimethylamino)ethoxy]phenylalanine] |
| < 100 nM | 153.8 °C | NCCOc1cccc(C[C@H](Nc2cc(-c3ccc(OCc4ccccc4)cc3)ncn2)C(=O)O)c1 [Example 5-1, 3-(2-Aminoethoxy)-N-{6-[4-(benzyloxy)phenyl]pyrimidin-4-yl}phenylalanine] |
| < 100 nM | 214 to 216 °C (dec.) | O=C(O)[C@H](Cc1ccccc1)Nc1cc(-c2ccc(/C=C/c3ccccc3)cc2)ncn1 [Example 7-1, N-(6-{4-[(E)-2-Phenylvinyl]phenyl}pyrimidin-4-yl)phenylalanine] |
| < 100 nM | 215 to 218 °C (dec.) | O=C(O)[C@H](Cc1ccccc1)Nc1cc(-c2ccc(C#Cc3ccccc3)cc2)ncn1 [Example 9-1, N-{6-[4-(Phenylethynyl)phenyl]pyrimidin-4-yl}phenylalanine] |
| < 100 nM | 217 to 220 °C (dec.) | O=C(O)[C@H](Cc1ccccc1)Nc1cc(-c2ccc(/C=C\c3ccccc3)cc2)ncn1 [Example 10-1, N-(6-{4-[(Z)-2-Phenylvinyl]phenyl}pyrimidin-4-yl)phenylalanin] |
| < 100 nM | 139 to 142 °C (dec.) | O=C(O)C(Cc1ccccc1)Nc1cc(-c2ccc(-c3ccc4c(c3)OCO4)cc2)ncn1 (centres unmarked) [Example 11-2] |
| < 100 nM | 135 to 137 °C (dec.) | CSc1ccc(-c2ccc(-c3cc(NC(Cc4ccccc4)C(=O)O)ncn3)cc2)cc1 (centres unmarked) [Example 11-3] |
| < 100 nM | 112 to 114 °C (dec.) | COc1cccc(-c2ccc(-c3cc(NC(Cc4ccccc4)C(=O)O)ncn3)cc2)c1 (centres unmarked) [Example 11-4] |
| < 100 nM | 130 to 132 °C (dec.) | O=C(O)C(Cc1ccccc1)Nc1cc(-c2ccc(-c3ccc4ccccc4c3)cc2)ncn1 (centres unmarked) [Example 11-5] |
| 100 to 1000 nM | 124 to 126 °C (dec.) | O=C(O)C(Cc1ccccc1)Nc1cc(-c2ccc(-c3cccc(-c4ccccc4)c3)cc2)ncn1 (centres unmarked) [Example 11-6] |
